Patent publication US8710069B2, “Opioid-nornicotine codrugs combinations for pain management” (University of Kentucky Research Foundation, priority 2008, dated 2014)
Several values for one entry are separate records, joined by “and”; a condition that tells them apart may be missing. Equal entries are not always repeated.

Legend:
Rat [1] = assay type: in vivo; conditions: IT nornicotine perchlorate 10 ug/10 ul, Day 1
Procedure: • Experiment: Tail-Flick—Al at 40%; cut-off 10 sec. • Measurements will be taken at baseline (2×), 5, 10, 15, 30, 45, 60, 90, 120 minutes after drug administration. • Drug Treatment: • […] will be administered in a 10 ul vol., followed by a 10 ul saline flush. • Both R- & S-nornicotine will be tested. • Preparation of Solution: • 10 ug in 10 ul vol. • 100 ug in 100 ul vol. • […]. • 1 mg in 1 ml=10 mg/10 ml vol. • Drug Administration Schedule: […]

Rat [2] = test: Tail-Flick test after intrathecal (IT) injection, AI 40%, cut-off 10 sec; assay type: in vivo; conditions: IT nornicotine perchlorate 10 ug/10 ul alone, Day 1, one rat per line, cutoff 10 sec; for Tail-Flick 5 min.: 5 min after injection; for Tail-Flick 10 min.: 10 min after injection; for Tail-Flick 15 min.: 15 min after injection; for Tail-Flick 30 min.: 30 min after injection; for Tail-Flick 45 min.: 45 min after injection; for Tail-Flick 60 min.: 60 min after injection
Procedure: • Experiment: Tail-Flick—Al at 40%; cut-off 10 sec. • Measurements will be taken at baseline (2×), 5, 10, 15, 30, 45, 60, 90, 120 minutes after drug administration. • Drug Treatment: • […] will be administered in a 10 ul vol., followed by a 10 ul saline flush. • Both R- & S-nornicotine will be tested. • Preparation of Solution: • 10 ug in 10 ul vol. • 100 ug in 100 ul vol. • […]. • 1 mg in 1 ml=10 mg/10 ml vol. • Drug Administration Schedule:
IT—Narnicotine Perchlorate—Day 1 Tail-Flick—IITC Life Science Model 33 Series 8 • Al=40% Cutoff=10 sec. […]

[3] = following peripheral administration of nicotine; cited from earlier work
[4] = following repeated nicotine dosing; cited from earlier work

| Structure (SMILES) | Behavior: side effects (Rat [1]) | Tail-Flick 5 min. (Rat [2]) | Tail-Flick 10 min. (Rat [2]) | Tail-Flick 15 min. (Rat [2]) | Tail-Flick 30 min. (Rat [2]) | Tail-Flick 45 min. (Rat [2]) | Tail-Flick 60 min. (Rat [2]) | residence in the rat's brain [3] [min] | accumulation in the brain compared to nicotine [4] | residence in the rat's brain, times longer than nicotine [3] |
| --- | --- | --- | --- | --- | --- | --- | --- | --- | --- | --- |
| c1cncc([C@H]2CCCN2)c1 [R, R-nornicotine] | no noticeable side effects | 3.04 s and 5.00 s and 5.47 s and 2.16 s and 6.67 s | 2.23 s and 4.08 s and 2.53 s and 1.80 s and 5.95 s | 3.16 sec and 4.34 sec and 2.82 sec (2×) and 2.86 sec | 2.55 s and 3.13 s and 3.90 s and 2.73 s and 4.14 s | 3.13 s and 2.87 s and 4.26 s and 2.40 s and 4.95 s | 2.19 s and 2.75 s and 3.12 s and 2.63 s and 3.93 s |  |  |  |
| c1cncc([C@@H]2CCCN2)c1 [S, S-nornicotine] | no obvious side effects | 9.06 s and 8.01 s and 4.40 s and 8.17 s and 3.84 s | 6.39 s and 5.47 s and 5.60 s and 6.21 s and 3.21 s | 4.58 s and 4.33 s and 6.08 s and 3.29 s and 3.56 s | 6.14 s and 3.31 s and 4.85 s and 3.47 s and 4.05 s | 3.95 s and 3.57 s and 2.23 s and 4.60 s and 4.07 s | 4.11 sec and 3.35 sec (2×) and 4.27 sec and 4.26 sec |  |  |  |
| CN1CCCC1c1cccnc1 (stereo not drawn) [nicotine] |  |  |  |  |  |  |  | 52 |  |  |
| c1cncc([C@@H]2CCCN2)c1 [nornicotine] |  |  |  |  |  |  |  | 166 | about 4 fold | about 3 times |
